In article PMC10654507, “A cleavable chimeric peptide with targeting and killing domains enhances LPS neutralization and antibacterial properties against multi-drug resistant E. coli” (Communications Biology, 2023):
Converted amounts (≈) assume the structure as drawn. Like-named read-outs stand apart in the source and are kept apart here. Residues, ends and D or L forms follow the SMILES beside them.

Columns and labels:
[1] = system: S. typhimurium CVCC533; type: cell-based, Salmonella typhimurium; settings: repeated three times; for MBC: lowest concentration giving 99.9% reduction of the inoculum; for MIC: microtiter broth dilution, 10^5 CFU/mL, 37 °C, 16 ~ 18 h
Experimental: The minimum inhibitory concentration (MIC) and minimum bactericidal concentration (MBC) of peptides were determined by the microtiter broth dilution method according to Clinical and Laboratory Standards Institute (CLSI) guidelines. […] PBS was used as the negative control. […] The MBC value was calculated as the lowest concentration of peptides resulting in a 99.9% reduction of the original inoculum. All experiments were repeated three times.

[2] = system: E. coli 0111: B4 LPS; assay: BC (BODIPY-TR-cadaverine) displacement assay, binding to LPS; set-up: species or system Escherichia coli; unit not given here; settings: Fig. 4a source data, mean
Experimental: The binding of peptides to LPS was determined according to the method described previously[34],[59]. In brief, E. coli 0111: B4 LPS (40 μg/mL) and BODIPY-TR-cadaverine (BC) (10 μM) were mixed in 50 mM Tris buffer (pH = 7.4) in equal proportions and added to a 96-well black plate (180 μL/well) in the dark. Different concentrations of chimeric peptide R7 and its parental (20 μL) were added into each well and detected by a fluorescence spectrophotometry at room temperature (excitation wavelength 580 nm, emission wavelength 620 nm). The change in relative fluorescence was recorded and the BC displacement rate was calculated. Polymycin B (PMB) was used as the positive control.

[3] = system: MDR E. coli CVCC195; assay: Lung injury score (H&E histology), E. coli-challenged mice; type: in vivo, mouse; settings: for lung injury score: 7 μmol/kg i.p. pre-treatment, three mice/group; for Pathological analysis of lung (lung injury score): Fig. 6b source data, peptide + E. coli, mean
Experimental: Lung injury was analyzed histologically at 12 h or 24 h. a Histopathological images of lung sections after staining with hematoxylin and eosin (H&E). Images are presented at a magnification of 100×. b Pathological analysis of lung. Lung injury involves in inflammation (such as peribronchial, perivascular, intrabronchial, and pulmonary interstitial one), bronchial exudate, and alveolar septal thickening, respectively. The specific degree of lung injury of each mouse is assessed by Score 0 (asymptomatic), Score 1 (mild), Score 2 (moderate), and Score 3 (severe), respectively. c The number of counted infiltrated inflammatory cells within processed lung sections from a. Data represent the mean ± SD of three independent experiments. Different lower-case letters indicate a significant difference between the two groups (p < 0.05).
(§1) Lung tissues were taken at 12 h and 24 h, respectively, washed with PBS, and fixed in 4% paraformaldehyde overnight. After dehydration in different concentrations of ethanol (including 75%, 85%, 90%, and 95%, respectively), the tissues were embedded in paraffin, sliced, and stained with hematoxylin. Observation was performed under a light microscope. The mice only injected with E. coli, LPS or PBS was regard as the negative or blank control.

[4] = system: LPS; assay: Mouse survival, preventive treatment before lethal LPS challenge; type: in vivo; set-up: key to survival of mice, single-animal event: 1 represents a mouse death; 0 represents no death; settings: for mouse survival at 7 days: 7 μmol/kg i.p. at 0 h, LPS 13.5 mg/kg i.p. at 6 h, five mice/group; for survival of mice, single-animal event: Fig. 7a source data, LPS challenge
Experimental: A sepsis mouse model established in our laboratory was used to evaluate the prevention effect of peptides. […] The survival rate of mice was recorded for 7 days. The mice injected with saline were used as negative control.

[5] = system: LPS; assay: Serum cytokines (TNF-α, IL-6, IL-1β, IL-10; ELISA) in LPS-challenged mice; type: in vivo, mouse; settings: LPS-challenged mice pre-treated with 7 μmol/kg, range over sampling times (12 h, 24 h)
Experimental: After E. coli or LPS challenge, the mice were sacrificed at 12 h and 24 h, respectively, and the sera were collected to detect inflammatory cytokines (such as tumor necrosis factor-α (TNF-α), interleukin-6 (IL-6), interleukin-1β (IL-1β), and interleukin-10 (IL-10)) using the enzyme linked immunosorbent assay (ELISA) kits. To evaluate the specific activity of intestinal alkaline phosphatase (IAP), a 2 cm segment of duodenum was rapidly intercepted from the mice and homogenized; the IAP levels in the supernatant were detected by ELISA. In addition, the lungs were collected from the mice infected by E. coli after 12 and 24 h, respectively and were homogenized in sterile PBS for the bacterial counts assay.

[6] = system: LPS; assay: Lung injury score (H&E histology), LPS-challenged mice; type: in vivo, mouse; settings: 7 μmol/kg pre-treatment, 24 h (implied by contrast with 12 h)
Experimental: Fig. 8 Effects of cleavable chimeric peptide R7 on lung injury in mice. […] Lung injury was analyzed histologically at 12 h or 24 h, respectively. a Histopathological images of lung sections after staining with hematoxylin and eosin (H&E). Images are presented at a magnification of 100×. b Pathological analysis of lung. Lung injury involves in inflammation (such as peribronchial, perivascular, intrabronchial, and pulmonary interstitial one), bronchial exudate, and alveolar septal thickening, respectively. The specific degree of lung injury of each mouse is assessed by Score 0 (asymptomatic), Score 1 (mild), Score 2 (moderate), and Score 3 (severe), respectively. c The number of counted infiltrated inflammatory cells within processed lung sections from (a). Data represent the mean ± SD of three independent experiments. Different lower-case letters indicate a significant difference between the two groups (p < 0.05).
as §1

[7] = system: MDR E. coli; type: in vivo, mouse; set-up: key to therapeutic efficacy, survival, single-animal event: 1 represents a mouse death; 0 represents no death; settings: for therapeutic efficacy, survival, single-animal event: Supplementary Fig. 3a source data, MDR E. coli challenge, one cell per mouse
Experimental: (§2) Supplementary Figure 3. Therapeutic eﬀicacy of cleavable chimeric peptide R7 in the mice
(§3) challenged with MDR E. coli or LPS After the intraperitoneal injection with MDR E. coli (a) or LPS
(§4) (b) at a concentration of LD100, the mice were treated with 7 μmol/kg R7 at 0.5 h and 8 h, respectively.
(§5) The mouse survival was recorded for 7 d. The mice injected with MDR E. coli/LPS or saline were used

[8] = system: LPS; type: in vivo, mouse; set-up: key: 1 represents a mouse death; 0 represents no death; settings: Supplementary Fig. 3b source data, LPS challenge
Experimental: as §2, §3, §4, §5

[9] = event at day 2, one cell per mouse
[10] = event at day 7, one cell per entry
[11] = event at day 3, one cell per mouse

Structure (SMILES) | MBC [1] [µM] | MIC [1] [µM] | binding affinity to LPS ([2]; peptide concentration 0.05 μM) | binding affinity to LPS ([2]; peptide concentration 0.1 μM) | binding affinity to LPS ([2]; peptide concentration 0.5 μM) | binding affinity to LPS ([2]; peptide concentration 1 μM) | binding affinity to LPS ([2]; peptide concentration 5 μM) | binding affinity to LPS ([2]; peptide concentration 10 μM) | binding affinity to LPS ([2]; peptide concentration 50 μM) | binding affinity to LPS ([2]; peptide concentration 100 μM) | lung injury score ([3]; 12 h after E. coli infection) [points] | lung injury score ([3]; 24 h after E. coli infection) [points] | Pathological analysis of lung (lung injury score) ([3]; 12 h) | Pathological analysis of lung (lung injury score) ([3]; 24 h) | mouse survival at 7 days [4] [%] | survival of mice, single-animal event [4, 9] | survival of mice, single-animal event [4, 10] | serum IL-1β concentration [5] | serum IL-6 concentration [5] | serum IL-10 concentration [5] | further results
CSCC[C@H](NC(=O)[C@H](CCCNC(=N)N)NC(=O)[C@H](Cc1c[nH]c2ccccc12)NC(=O)[C@H](C)NC(=O)[C@H](Cc1c[nH]c2ccccc12)NC(=O)[C@H](CCCNC(=N)N)NC(=O)[C@H](Cc1c[nH]c2ccccc12)NC(=O)[C@H](C)NC(=O)[C@H](CCCCN)NC(=O)[C@@H](N)Cc1ccccc1)C(=O)N[C@@H](CCCCN)C(=O)N[C@@H](CCCCN)C(=O)N[C@@H](CC(C)C)C(=O)N[C@@H](C)C(=O)N[C@@H](C)C(=O)N1CCC[C@H]1C(=O)N[C@@H](CO)C(=O)O [L7] (H-FKAWRWAWRMKKLAAPS-OH) | 18.1 (≈ 38.6 µg/mL) | 18.1 (≈ 38.6 µg/mL) | 17.2577 | 18.4019 | 19.7825 | 22.1031 | 24.1888 | 28.4883 | 44.9086 | 71.3338 | 7.7 | 5.7 | 6.667 | 7 | 40 | 1 | 0 | 24.6 ~ 26.1 pg/mL | 113.2 ~ 120.2 pg/mL | 11.5 ~ 12.0 pg/mL | serum TNF-α concentration [5]: 56.4 ~ 68.0 pg/mL; lung injury score [6]: 6.3 points; therapeutic efficacy, survival, single-animal event ([7]; event at day 2): 1; therapeutic efficacy, survival, single-animal event ([7]; event at day 4): 1; therapeutic efficacy, survival, single-animal event ([7]; event at day 6): 1; therapeutic efficacy, survival, single-animal event [8, 9]: 1; therapeutic efficacy, survival, single-animal event [8, 11]: 1; therapeutic efficacy, survival, single-animal event [8, 10]: 0
CSCC[C@H](NC(=O)[C@H](CCCNC(=N)N)NC(=O)[C@H](Cc1c[nH]c2ccccc12)NC(=O)[C@H](C)NC(=O)[C@H](Cc1c[nH]c2ccccc12)NC(=O)[C@H](CCCNC(=N)N)NC(=O)[C@H](Cc1c[nH]c2ccccc12)NC(=O)[C@H](C)NC(=O)[C@H](CCCCN)NC(=O)[C@H](Cc1ccccc1)NC(=O)[C@H](CCCNC(=N)N)NC(=O)[C@H](CCCNC(=N)N)NC(=O)[C@H](CCCCN)NC(=O)[C@H](CCCNC(=N)N)NC(=O)[C@H](CCCCN)NC(=O)[C@H](Cc1ccccc1)NC(=O)[C@H](Cc1ccccc1)NC(=O)[C@H](CO)NC(=O)[C@H](C)NC(=O)[C@H](CCCNC(=N)N)NC(=O)[C@@H](NC(=O)[C@H](CCCCN)NC(=O)[C@H](Cc1c[nH]c2ccccc12)NC(=O)[C@H](CCCNC(=N)N)NC(=O)CNC(=O)[C@H](CCC(N)=O)NC(=O)[C@@H](NC(=O)[C@@H](N)CCCNC(=N)N)C(C)C)C(C)C)C(=O)N[C@@H](CCCCN)C(=O)N[C@@H](CCCCN)C(=O)N[C@@H](CC(C)C)C(=O)N[C@@H](C)C(=O)N[C@@H](C)C(=O)N1CCC[C@H]1C(=O)N[C@@H](CO)C(=O)O [R7] (H-RVQGRWKVRASFFKRKRRFKAWRWAWRMKKLAAPS-OH) | 2.26 (≈ 10.1 µg/mL) | 1.13 (≈ 5.06 µg/mL) | 20.2273 | 21.6184 | 51.5852 | 77.8834 | 85.6571 | 94.6127 | 98.4665 | 96.0469 | 4.3 | 2.0 | 2.333 | 2 | 100 | 0 | 0 | 16.9 ~ 17.5 pg/mL | 92.5 ~ 99.3 pg/mL | 13.9 ~ 14.5 pg/mL | serum TNF-α concentration [5]: 43.1 ~ 46.1 pg/mL; lung injury score [6]: 3.0 points; mouse survival, therapeutic treatment ([7]; MDR E. coli at LD100 i.p., then 7 μmol/kg R7 at 0.5 h and 8 h, recorded 7 d): ≤ 20%; therapeutic efficacy, survival, single-animal event ([7]; event at day 1): 1; therapeutic efficacy, survival, single-animal event ([7]; event at day 2): 1; therapeutic efficacy, survival, single-animal event ([7]; event at day 3): 1; therapeutic efficacy, survival, single-animal event ([7]; event at day 5): 1; therapeutic efficacy, survival, single-animal event [8, 9]: 1; therapeutic efficacy, survival, single-animal event [8, 11]: 1; therapeutic efficacy, survival, single-animal event [8, 10]: 0
